Measurements taken from patent US7994204B2, “Binding inhibitor of sphingosine-1-phosphate” (Taisho Pharmaceutical Co., Ltd, priority 2006, dated 2011).

Tests used:
[1] = biological target: T1, human Edg-1 (S1P1) (Homo sapiens, UniProt P21453); assay: S1P1 binding inhibition test (membrane, [33P]-S1P); conditions: for inhibition at 10 µM: compound 10 μM, [33P]-S1P 0.1 nM, human Edg-1 (S1P1) HEK-293 membrane fraction, read-out: Binding test (membrane) % inhibition (10 μM); for IC50: membrane system binding test, various concentrations
T1 construct: expressed in transfected cells; host or cells: HEK-293
Procedure, shortened: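 Membranes from Edg-1 (S1P1)-expressing HEK-293 cells incubated 1 h at 30 °C in pH 7.4 Tris buffer with 0.1 nM [33P]-S1P and compound (10^−5 M, or various concentrations for IC50). Filter-bound radioactivity counted; background from non-transfected HEK-293 membranes; inhibition = [1−(A−C)/(B−C)]×100.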

T1 sequence (P21453 whole entry): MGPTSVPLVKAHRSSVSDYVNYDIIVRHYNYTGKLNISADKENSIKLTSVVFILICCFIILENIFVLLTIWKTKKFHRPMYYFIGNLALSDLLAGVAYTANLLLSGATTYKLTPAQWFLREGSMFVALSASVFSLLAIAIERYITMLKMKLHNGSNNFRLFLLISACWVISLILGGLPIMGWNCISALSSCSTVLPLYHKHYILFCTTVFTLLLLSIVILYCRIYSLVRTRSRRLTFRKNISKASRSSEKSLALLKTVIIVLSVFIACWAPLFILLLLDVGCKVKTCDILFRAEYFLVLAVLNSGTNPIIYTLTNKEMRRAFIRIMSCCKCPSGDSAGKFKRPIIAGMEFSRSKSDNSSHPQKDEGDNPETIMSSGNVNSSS

SMILES | inhibition at 10 µM [1] [%] | melting point [°C] | IC50 [1] [nM]
CCn1c(C(NS(=O)(=O)c2ccc(Cl)c(Cl)c2)C(C)C)cnc1Oc1ccc(F)cc1 (centres unmarked) [Compound 221] | 52.6 | 101 to 102 | –
CCn1c(C(C)NS(=O)(=O)c2ccc(Cl)c(Cl)c2)cnc1OC(C)C (centres unmarked) [Compound 222] | 87.6 | 178 to 180 | –
CCCOc1ncc(C(C)NS(=O)(=O)c2ccc(Cl)c(Cl)c2)n1CC (centres unmarked) [Compound 223] | 92.1 | 181 to 183 | –
CCn1c(C(C)NS(=O)(=O)c2ccc(Cl)c(Cl)c2)cnc1OCC(F)(F)F (centres unmarked) [Compound 224] | 87 | 133.5 to 134.5 | –
CCc1nc(Oc2ccc(F)cc2)n(CC)c1C(C)NS(=O)(=O)c1ccc(Cl)c(Cl)c1 (centres unmarked) [Compound 225] | 98.9 | 122 to 124 | –
C#CCCCOc1ncc(C(C)NS(=O)(=O)c2ccc(Cl)c(Cl)c2)n1CC (centres unmarked) [Compound 226] | 91.5 | 172.5 to 173.5 | –
CCn1c(C(C)NS(=O)(=O)c2ccc(Cl)c(Cl)c2)cnc1OCCCN1CCOCC1 (centres unmarked) [Compound 228] | 96 | 160.5 to 162.5 | –
CCn1c(C(C)NS(=O)(=O)c2ccc(Cl)c(Cl)c2)cnc1Oc1ccc(OCCN(C)C)cc1 (centres unmarked) [Compound 229] | 99 | 106 to 107 | ≤ 70
CCn1c(C(C)NS(=O)(=O)c2ccc(Cl)c(Cl)c2)cnc1OCc1ccccc1 (centres unmarked) [Compound 230] | 90.7 | 102 to 103 | –
CCn1c(C(C)NS(=O)(=O)c2ccc(Cl)c(Cl)c2)cnc1OC1CCC1 (centres unmarked) [Compound 231] | 97.4 | 162 to 163 | –
CCn1c(Oc2ccc(F)cc2)nc(Br)c1C(C)NS(=O)(=O)c1ccc(Cl)c(Cl)c1 (centres unmarked) [Compound 232] | 92.3 | 128.5 to 129.5 | –
CCn1c(C(C)NS(=O)(=O)c2ccc(Cl)c(Cl)c2)cnc1OCCCCCCN(C)C (centres unmarked) [Compound 235] | 94 | 137.5 to 142.5 | 58.5
CCn1c(C(C)NS(=O)(=O)c2ccc(Cl)c(Cl)c2)cnc1Oc1cccc(NC(C)=O)c1 (centres unmarked) [Compound 236] | 96.8 | 213.5 to 215.5 | ≤ 70
C=CCCCOc1ncc(C(C)NS(=O)(=O)c2ccc(Cl)c(Cl)c2)n1CC (centres unmarked) [Compound 237] | 93.1 | 152.5 | –
CCn1c(C(C)NS(=O)(=O)c2ccc(Cl)c(Cl)c2)cnc1OCCCOC (centres unmarked) [Compound 239] | 95.9 | 151.5 to 152.5 | –
CCn1c(C(C)NS(=O)(=O)c2ccc3cc(C)ccc3c2)cnc1Oc1cccc(N2CCN(C)CC2)c1 (centres unmarked) [Compound 242] | 94.5 | 175 to 177 | –
CCn1c(C(C)NS(=O)(=O)c2ccc3ccc(Cl)cc3c2)cnc1Oc1cccc(N2CCN(C)CC2)c1 (centres unmarked) [Compound 243] | 97.4 | 135 to 136 | –
CCn1c(C(C)NS(=O)(=O)c2ccc3c(c2)CCC3)cnc1Oc1cccc(N2CCN(C)CC2)c1 (centres unmarked) [Compound 244] | 98.3 | 160 to 162 | 32.5
CCn1c(C(C)NS(=O)(=O)/C=C/c2ccccc2)cnc1Oc1cccc(N2CCN(C)CC2)c1 (centres unmarked) [Compound 245] | 98.9 | 141 to 143 | –
CCn1c(C(C)NS(=O)(=O)c2ccc3c(Cl)ccc(Cl)c3c2)cnc1Oc1cccc(N2CCN(C)CC2)c1 (centres unmarked) [Compound 246] | 101 | 220 to 223 | ≤ 15
CCn1c(C(C)NS(=O)(=O)c2ccc3cccc(Cl)c3c2)cnc1Oc1cccc(N2CCN(C)CC2)c1 (centres unmarked) [Compound 247] | 99.9 | 196 to 198 | ≤ 15
CCn1c(C(C)NS(=O)(=O)c2ccc(Cl)c(Cl)c2)cnc1S(=O)(=O)c1ccc(C)cc1 (centres unmarked) [Compound 252, 3,4-Dichloro-N-{1-[3-ethyl-2-(toluene-4-sulfonyl)-3H-imidazol-4-yl]-ethyl}-benzenesulfonamide] | 52.5 | 180 to 183 | –
